Data on 29 molecules can be found in patent publication US20240174662A1, “SMALL MOLECULE INHIBITORS OF SALT INDUCIBLE KINASES” (Janssen Biotech, Inc., priority 2021, published 2024).

Molecules are shown by their SMILES. Where “and” joins values, the source holds several entries; their conditions need not be identical. Identical values can stand only once.

The target in this assay is SIK2 (Homo sapiens (Human), UniProt Q9H0K1). Nature of the assay: SIK2 Enzymatic Assay Version 2 (High ATP). The assay is classed as biochemical. The settings on record: 3 mM ATP and 200 μM HDAC5tide final, ADP-Glo Max luminescence. Put shortly: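 Run at room temperature; SIK2 enzyme at 6 nM (2× final) preincubated with compound 30 min before reaction. ADP formation detected by ADP-Glo Max (2 h reagent, 1 h detection) with luminescence read-out.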
On the technique in general: ADP-Glo turns the ADP formed in a reaction into a luminescent signal.

SIK2, sequence (Q9H0K1 whole entry, species assumed): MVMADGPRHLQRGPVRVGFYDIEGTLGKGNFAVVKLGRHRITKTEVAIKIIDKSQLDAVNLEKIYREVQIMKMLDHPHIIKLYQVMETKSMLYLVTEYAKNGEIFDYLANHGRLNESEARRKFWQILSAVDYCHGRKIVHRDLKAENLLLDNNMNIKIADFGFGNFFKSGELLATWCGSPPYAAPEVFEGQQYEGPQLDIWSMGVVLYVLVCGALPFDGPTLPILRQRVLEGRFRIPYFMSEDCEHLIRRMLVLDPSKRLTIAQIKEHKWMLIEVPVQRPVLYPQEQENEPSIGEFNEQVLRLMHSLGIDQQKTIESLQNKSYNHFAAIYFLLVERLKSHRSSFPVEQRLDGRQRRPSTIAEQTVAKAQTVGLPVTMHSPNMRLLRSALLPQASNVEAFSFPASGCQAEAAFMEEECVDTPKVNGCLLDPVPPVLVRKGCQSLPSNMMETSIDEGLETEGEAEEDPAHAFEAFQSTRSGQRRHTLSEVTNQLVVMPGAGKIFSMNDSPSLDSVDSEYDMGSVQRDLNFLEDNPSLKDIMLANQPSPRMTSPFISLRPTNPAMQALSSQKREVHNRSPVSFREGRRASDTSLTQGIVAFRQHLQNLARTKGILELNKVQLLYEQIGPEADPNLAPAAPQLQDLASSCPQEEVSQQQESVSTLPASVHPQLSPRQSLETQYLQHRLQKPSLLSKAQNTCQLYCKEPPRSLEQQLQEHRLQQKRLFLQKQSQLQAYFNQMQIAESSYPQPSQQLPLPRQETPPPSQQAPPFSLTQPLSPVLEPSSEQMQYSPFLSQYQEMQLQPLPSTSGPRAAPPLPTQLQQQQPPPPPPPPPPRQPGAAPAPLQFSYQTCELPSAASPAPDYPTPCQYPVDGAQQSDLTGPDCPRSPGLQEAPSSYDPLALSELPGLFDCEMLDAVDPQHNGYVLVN

The term IC50 denotes the concentration that gives 50% inhibition. Low values mean inhibition by little substance, high ones a need for much substance. `CCN1CC[C@@H]1COc1cnn(C)c1-c1ccn2nc(Nc3cc(C)nc(C)n3)cc2c1` [Example 62, N-(2,6-dimethylpyrimidin-4-yl)-5-[4-[[(2R)-1-ethylazetidin-2-yl]methoxy]-2-methyl-pyrazol-3-yl]pyrazolo[1,5-a]pyridin-2-amine]: the IC50 stood at 0.9 nM.

Take `COCCNC(=O)c1cnc(Nc2cc3cc(-c4c(OC[C@H]5CCN5C)cnn4C)ccn3n2)cn1` [Example 115, N-(2-methoxyethyl)-5-[[5-[2-methyl-4-[[(2R)-1-methylazetidin-2-yl]methoxy]pyrazol-3-yl]pyrazolo[1,5-a]pyridin-2-yl]amino]pyrazine-2-carboxamide]: the midpoint of inhibition, the IC50, lay at 9 nM.

`CO[C@H]1CNC[C@H]1Oc1noc(C)c1-c1ccn2nc(NC(=O)C3CC3)cc2c1` [Example 88, N-[5-[3-[(3R,4S)-4-methoxypyrrolidin-3-yl]oxy-5-methyl-isoxazol-4-yl]pyrazolo[1,5-a]pyridin-2-yl]cyclopropanecarboxamide] returned a half-maximal inhibitory concentration (IC50) of 11.5 nM.

`CN1CC[C@@H]1COc1cnn(C)c1-c1ccn2nc(Nc3cnc(OC(F)F)cn3)cc2c1` [Example 155, N-[5-(difluoromethoxy)pyrazin-2-yl]-5-[2-methyl-4-[[(2R)-1-methylazetidin-2-yl]methoxy]pyrazol-3-yl]pyrazolo[1,5-a]pyridin-2-amine] displayed a half-maximal inhibitory concentration (IC50) of 6.6 nM.

With `Cc1cc(Nc2cc3cc(-c4c(O[C@@H]5CNC[C@@H]5F)cnn4C(F)F)ccn3n2)nc(C)n1` [Example 32, 5-[2-(difluoromethyl)-4-[(3R,4S)-4-fluoropyrrolidin-3-yl]oxy-pyrazol-3-yl]-N-(2,6-dimethylpyrimidin-4-yl)pyrazolo[1,5-a]pyridin-2-amine], the IC50 was 6.6 nM. This lies in the single-digit nanomolar range.

As for `Cc1cc(Nc2cc3cc(-c4c(OC[C@H]5OCC[C@@H]5O)cnn4C(F)F)ccn3n2)nc(C)n1` [Example 99, (2R,3S)-2-[[1-(difluoromethyl)-5-[2-[(2,6-dimethylpyrimidin-4-yl)amino]pyrazolo[1,5-a]pyridin-5-yl]pyrazol-4-yl]oxymethyl]tetrahydrofuran-3-ol], the IC50 was determined as 10.9 nM.

Consider `CN1C[C@@H](COc2cnn(C)c2-c2ccn3nc(NC(=O)C4CC4)cc3c2)[C@H](O)C1` [Example 417, N-[5-[4-[[(3S,4S)-4-hydroxy-1-methyl-pyrrolidin-3-yl]methoxy]-2-methyl-pyrazol-3-yl]pyrazolo[1,5-a]pyridin-2-yl]cyclopropanecarboxamide], for which the IC50 is 130 nM.

`Cc1cc(Nc2cc3cc(-c4c(OC[C@H]5CCCN5C)cnn4C)ccn3n2)ncn1` [Example 285, 5-[2-methyl-4-[[(2R)-1-methylpyrrolidin-2-yl]methoxy]pyrazol-3-yl]-N-(6-methylpyrimidin-4-yl)pyrazolo[1,5-a]pyridin-2-amine] gave an IC50 of 18.5 nM.

As for `CCN1CC[C@@H]1COc1cnn(C)c1-c1ccn2nc(Nc3cnc(C(F)(F)F)cn3)cc2c1` [Example 160, 5-[4-[[(2R)-1-ethylazetidin-2-yl]methoxy]-2-methyl-pyrazol-3-yl]-N-[5-(trifluoromethyl)pyrazin-2-yl]pyrazolo[1,5-a]pyridin-2-amine], the IC50 was 2.5 nM and 3.6 nM.

`Cc1cc(Nc2cc3cc(-c4c(OC[C@H]5COC6(CCCC6)O5)cnn4C)ccn3n2)nc(C)n1` (single isomer, unassigned) [Example 299, (*S)—N-(2,6-dimethylpyrimidin-4-yl)-5-[4-(6,9-dioxaspiro[4.4]nonan-8-ylmethoxy)-2-methyl-pyrazol-3-yl]pyrazolo[1,5-a]pyridin-2-amine] had an IC50 of 31.1 nM.

Regarding `CCN1CC2(CC2)[C@@H]1COc1cnn(C)c1-c1ccn2nc(NC(=O)C3CC3)cc2c1` (single isomer, unassigned) [Example 16, (*R)—N-(5-(4-((5-Ethyl-5-azaspiro[2.3]hexan-4-yl)methoxy)-1-methyl-1H-pyrazol-5-yl)pyrazolo[1,5-a]pyridin-2-yl)cyclopropanecarboxamide], the IC50 came out at 219 nM.

Molecule `Cc1onc(O[C@H]2CCN(C)C2)c1-c1ccn2nc(NC(=O)C3CC3)cc2c1` [Example 382, N-[5-[5-methyl-3-[(3S)-1-methylpyrrolidin-3-yl]oxy-isoxazol-4-yl]pyrazolo[1,5-a]pyridin-2-yl]cyclopropanecarboxamide] had an IC50 of 96.1 nM.

In turn, `Cc1onc(OC[C@H]2CN(C)CC(C)(C)O2)c1-c1ccn2nc(NC(=O)C3CC3)cc2c1` [Example 214, N-[5-[5-methyl-3-[[(2R)-4,6,6-trimethylmorpholin-2-yl]methoxy]isoxazol-4-yl]pyrazolo[1,5-a]pyridin-2-yl]cyclopropanecarboxamide] displayed an IC50 of 15.8 nM.

As for `COc1nc(C)cc(Nc2cc3cc(-c4c(OC[C@H]5CCN5C)cnn4C)ccn3n2)n1` [Example 146, N-(2-methoxy-6-methyl-pyrimidin-4-yl)-5-[2-methyl-4-[[(2R)-1-methylazetidin-2-yl]methoxy]pyrazol-3-yl]pyrazolo[1,5-a]pyridin-2-amine], the IC50 is < 0.847 nM.

`Cc1cnc(Nc2cc3cc(-c4c(OC[C@H]5CCN5C)noc4C)ccn3n2)cn1` [Example 323, 5-[5-methyl-3-[[(2R)-1-methylazetidin-2-yl]methoxy]isoxazol-4-yl]-N-(5-methylpyrazin-2-yl)pyrazolo[1,5-a]pyridin-2-amine] displayed a concentration for half-maximal inhibition (IC50) of 25.6 nM.

Molecule `CN1CC[C@H](Oc2cnn(C)c2-c2ccn3nc(Nc4cnc5c(ccn5C)c4)cc3c2)C1` [Example 460, 1-methyl-N-[5-[2-methyl-4-[(3S)-1-methylpyrrolidin-3-yl]oxy-pyrazol-3-yl]pyrazolo[1,5-a]pyridin-2-yl]pyrrolo[2,3-b]pyridin-5-amine] gave an IC50 of 164 nM.

Take `[2H]C([2H])([2H])n1ncc(OC[C@H]2CCN2C)c1-c1ccn2nc(Nc3cc(C)nc(C)n3)cc2c1` [Example 131, N-(2,6-dimethylpyrimidin-4-yl)-5-[4-[[(2R)-1-methylazetidin-2-yl]methoxy]-2-(trideuteriomethyl)pyrazol-3-yl]pyrazolo[1,5-a]pyridin-2-amine]: the IC50 is < 0.847 nM.

For `CN1CC[C@@H]1COc1cnn(C)c1-c1ccn2nc(Nc3ccc(C(=O)NCCC#N)cn3)cc2c1` [Example 135, N-(2-cyanoethyl)-6-[[5-[2-methyl-4-[[(2R)-1-methylazetidin-2-yl]methoxy]pyrazol-3-yl]pyrazolo[1,5-a]pyridin-2-yl]amino]pyridine-3-carboxamide], the IC50 was determined as 5.8 nM.

`Cn1ncc(CO[C@H]2CCNC2)c1-c1ccn2nc(NC(=O)C3CC3)cc2c1` [Example 363, N-[5-[2-methyl-4-[[(3S)-pyrrolidin-3-yl]oxymethyl]pyrazol-3-yl]pyrazolo[1,5-a]pyridin-2-yl]cyclopropanecarboxamide] showed an IC50 of 51.9 nM.

`COC[C@@H]1C[C@H](Oc2noc(C)c2-c2ccn3nc(Nc4cc(C)c(C)nn4)cc3c2)CN1C` [Example 391, N-(5,6-dimethylpyridazin-3-yl)-5-[3-[(3S,5S)-5-(methoxymethyl)-1-methyl-pyrrolidin-3-yl]oxy-5-methyl-isoxazol-4-yl]pyrazolo[1,5-a]pyridin-2-amine] had an IC50 of 94.1 nM.

On to `COC[C@@H]1C[C@H](Oc2noc(C)c2-c2ccn3nc(Nc4cc(C)c(C)nn4)cc3c2)CN1` [Example 390, N-(5,6-dimethylpyridazin-3-yl)-5-[3-[(3S,5S)-5-(methoxymethyl)pyrrolidin-3-yl]oxy-5-methyl-isoxazol-4-yl]pyrazolo[1,5-a]pyridin-2-amine], for which the IC50 worked out at 70.8 nM.

The molecule `Cn1ncc(OC[C@@H]2CCNC2)c1-c1ccn2nc(NC(=O)C3CC3)cc2c1` [Example 229, N-[5-[2-methyl-4-[[(3R)-pyrrolidin-3-yl]methoxy]pyrazol-3-yl]pyrazolo[1,5-a]pyridin-2-yl]cyclopropanecarboxamide] gave an IC50 of 23.8 nM.

Consider `Cn1ncc(OC[C@H]2NCC2(C)C)c1-c1ccn2nc(NC(=O)C3CC3)cc2c1` [Example 4, N-[5-[4-[[(2S)-3,3-dimethylazetidin-2-yl]methoxy]-2-methyl-pyrazol-3-yl]pyrazolo[1,5-a]pyridin-2-yl]cyclopropanecarboxamide], for which inhibition was half-maximal at 7.6 nM (IC50).

Molecule `Cc1onc(OC[C@H](c2ccccc2F)N(C)C)c1-c1ccn2nc(NC(=O)C3CC3)cc2c1` [Example 324, N-[5-[3-[(2S)-2-(dimethylamino)-2-(2-fluorophenyl)ethoxy]-5-methyl-isoxazol-4-yl]pyrazolo[1,5-a]pyridin-2-yl]cyclopropanecarboxamide] gave an IC50 of 23.8 nM.

In turn, `CCN1CC[C@@H]1COc1cnn(C)c1-c1ccn2nc(NC(=O)[C@@H]3C[C@H]3C)cc2c1` [Example 66, (1R,2R)—N-[5-[4-[[(2R)-1-ethylazetidin-2-yl]methoxy]-2-methyl-pyrazol-3-yl]pyrazolo[1,5-a]pyridin-2-yl]-2-methyl-cyclopropanecarboxamide] had an IC50 of 1.4 nM. This IC50 lies about 17-fold lower than the previous one.

Consider `Cc1onc(OC[C@@H](N)c2ccccc2F)c1-c1ccn2nc(NC(=O)C3CC3)cc2c1` [Example 220, N-[5-[3-[(2S)-2-amino-2-(2-fluorophenyl)ethoxy]-5-methyl-isoxazol-4-yl]pyrazolo[1,5-a]pyridin-2-yl]cyclopropanecarboxamide], for which it took 4.9 nM to reach half-maximal inhibition (IC50).

`Cn1ncc(OC[C@H](O)c2ccccc2)c1-c1ccn2nc(NC(=O)C3CC3)cc2c1` [Example 403, N-[5-[4-[(2R)-2-hydroxy-2-phenyl-ethoxy]-2-methyl-pyrazol-3-yl]pyrazolo[1,5-a]pyridin-2-yl]cyclopropanecarboxamide] gave a half-inhibitory concentration (IC50) of 99.7 nM.

In the case of `Cc1cc(Nc2cc3cc(-c4c(O[C@H]5CCN(C)C5)cnn4C)ccn3n2)ncn1` [Example 265, 5-[2-methyl-4-[(3S)-1-methylpyrrolidin-3-yl]oxy-pyrazol-3-yl]-N-(6-methylpyrimidin-4-yl)pyrazolo[1,5-a]pyridin-2-amine], the midpoint of inhibition, the IC50, lay at 30.5 nM. This IC50 lies about 3.3-fold lower than the previous one.

Turning to `CCC1(OCc2cnn(C)c2-c2ccn3nc(NC(=O)C4CC4)cc3c2)CNC1` [Example 193, N-[5-[4-[(3-ethylazetidin-3-yl)oxymethyl]-2-methyl-pyrazol-3-yl]pyrazolo[1,5-a]pyridin-2-yl]cyclopropanecarboxamide], the IC50 is 21.2 nM. The IC50 values of the last two molecules are within 1.5-fold of each other.
